Experimental data as given in US10479786B2, “Protein kinase inhibitors” (Princeton Drug Discovery Inc, priority 2016, dated 2019).

Columns and labels:
Assay in all cases: Off-chip Mobility Shift Assay, kinase inhibition
Format in all cases: biochemical
ABL = target: T1, ABL (Homo sapiens, UniProt P00519); details: recombinant ABL; for inhibition at 0.001 µM: at 1 nM; for inhibition at 0.01 µM: at 10 nM
T1 construct: purchased Carna Biosciences, Inc

BMX = target: T2, BMX (Homo sapiens, UniProt P51813); details: recombinant BMX; for inhibition at 0.001 µM: at 1 nM; for inhibition at 0.01 µM: at 10 nM
T2 construct: purchased Carna Biosciences, Inc
T2 sequence (P51813 1-675): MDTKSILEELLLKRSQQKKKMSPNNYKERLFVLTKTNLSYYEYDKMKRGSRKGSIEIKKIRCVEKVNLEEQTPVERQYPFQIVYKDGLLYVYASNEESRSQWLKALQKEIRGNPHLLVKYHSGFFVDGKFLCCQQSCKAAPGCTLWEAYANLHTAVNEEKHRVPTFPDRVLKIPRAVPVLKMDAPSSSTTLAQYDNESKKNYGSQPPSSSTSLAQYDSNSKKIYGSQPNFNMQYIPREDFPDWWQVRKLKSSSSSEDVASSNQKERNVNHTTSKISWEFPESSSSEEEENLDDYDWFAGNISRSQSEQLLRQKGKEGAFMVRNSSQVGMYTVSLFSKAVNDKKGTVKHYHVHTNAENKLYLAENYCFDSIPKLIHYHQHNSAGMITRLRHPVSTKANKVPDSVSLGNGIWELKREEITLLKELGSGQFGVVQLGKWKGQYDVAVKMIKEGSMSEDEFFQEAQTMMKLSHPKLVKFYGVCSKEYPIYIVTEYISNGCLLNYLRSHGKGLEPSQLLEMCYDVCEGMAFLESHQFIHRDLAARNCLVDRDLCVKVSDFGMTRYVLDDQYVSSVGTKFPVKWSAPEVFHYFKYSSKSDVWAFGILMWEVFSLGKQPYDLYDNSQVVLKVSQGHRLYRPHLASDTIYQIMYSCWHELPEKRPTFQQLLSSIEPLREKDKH

DDR2 = target: T3, DDR2 (Homo sapiens, UniProt Q16832); details: at 10 nM; recombinant DDR2; read-out: inhibition
T3 construct: purchased Carna Biosciences, Inc
T3 sequence (Q16832 22-855): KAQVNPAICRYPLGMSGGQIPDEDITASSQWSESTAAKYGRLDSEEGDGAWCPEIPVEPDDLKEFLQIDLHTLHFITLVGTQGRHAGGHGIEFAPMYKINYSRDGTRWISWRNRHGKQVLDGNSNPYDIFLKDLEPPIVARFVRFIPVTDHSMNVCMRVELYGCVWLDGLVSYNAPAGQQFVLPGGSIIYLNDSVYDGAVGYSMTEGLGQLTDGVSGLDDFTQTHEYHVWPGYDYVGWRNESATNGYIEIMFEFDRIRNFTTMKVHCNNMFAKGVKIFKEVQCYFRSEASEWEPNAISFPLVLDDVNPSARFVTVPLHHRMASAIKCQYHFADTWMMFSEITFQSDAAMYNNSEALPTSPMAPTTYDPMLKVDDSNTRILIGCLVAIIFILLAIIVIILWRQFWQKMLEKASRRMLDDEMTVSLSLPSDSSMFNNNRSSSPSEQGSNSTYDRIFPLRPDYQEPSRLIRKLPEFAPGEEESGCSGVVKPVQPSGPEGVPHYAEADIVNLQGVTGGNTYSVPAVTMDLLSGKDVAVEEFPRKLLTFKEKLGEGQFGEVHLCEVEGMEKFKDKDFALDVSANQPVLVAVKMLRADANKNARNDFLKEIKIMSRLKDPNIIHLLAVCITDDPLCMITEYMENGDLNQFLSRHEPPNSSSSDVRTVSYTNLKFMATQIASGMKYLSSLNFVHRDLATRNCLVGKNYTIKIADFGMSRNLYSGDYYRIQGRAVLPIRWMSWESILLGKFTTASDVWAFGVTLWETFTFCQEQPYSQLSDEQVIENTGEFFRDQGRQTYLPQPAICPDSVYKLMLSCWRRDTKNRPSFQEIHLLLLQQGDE

EPHA1 = target: T4, EPHA1 (Homo sapiens, UniProt P21709); details: at 10 nM; recombinant EPHA1
T4 construct: purchased Carna Biosciences, Inc
T4 sequence (P21709 26-976): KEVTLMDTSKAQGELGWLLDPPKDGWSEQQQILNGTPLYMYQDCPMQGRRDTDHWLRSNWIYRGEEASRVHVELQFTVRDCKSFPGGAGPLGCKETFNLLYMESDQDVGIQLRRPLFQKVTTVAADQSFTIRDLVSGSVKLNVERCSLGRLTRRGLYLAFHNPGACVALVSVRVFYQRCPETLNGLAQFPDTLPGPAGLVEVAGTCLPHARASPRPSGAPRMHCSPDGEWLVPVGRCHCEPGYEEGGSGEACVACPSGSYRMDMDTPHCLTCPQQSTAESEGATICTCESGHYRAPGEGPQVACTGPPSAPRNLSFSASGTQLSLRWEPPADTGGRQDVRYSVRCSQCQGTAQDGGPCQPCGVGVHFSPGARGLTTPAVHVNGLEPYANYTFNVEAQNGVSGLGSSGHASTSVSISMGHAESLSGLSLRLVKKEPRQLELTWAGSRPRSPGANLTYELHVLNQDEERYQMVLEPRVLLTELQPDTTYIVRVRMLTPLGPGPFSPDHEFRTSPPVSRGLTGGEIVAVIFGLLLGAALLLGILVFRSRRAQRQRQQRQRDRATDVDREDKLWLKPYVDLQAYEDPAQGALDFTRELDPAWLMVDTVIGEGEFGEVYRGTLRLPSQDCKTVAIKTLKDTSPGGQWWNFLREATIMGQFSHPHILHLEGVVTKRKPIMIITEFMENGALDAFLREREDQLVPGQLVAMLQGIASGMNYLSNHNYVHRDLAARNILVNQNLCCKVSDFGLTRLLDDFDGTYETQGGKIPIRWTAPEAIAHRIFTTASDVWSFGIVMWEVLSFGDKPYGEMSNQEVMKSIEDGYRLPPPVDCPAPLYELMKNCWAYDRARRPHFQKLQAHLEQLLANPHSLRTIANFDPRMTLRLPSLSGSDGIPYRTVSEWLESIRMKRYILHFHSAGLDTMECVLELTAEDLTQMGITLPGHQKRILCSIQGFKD

FMS = target: T5, FMS (Homo sapiens, UniProt P07333); details: at 10 nM; recombinant FMS
T5 construct: purchased Carna Biosciences, Inc
T5 sequence (P07333 20-972): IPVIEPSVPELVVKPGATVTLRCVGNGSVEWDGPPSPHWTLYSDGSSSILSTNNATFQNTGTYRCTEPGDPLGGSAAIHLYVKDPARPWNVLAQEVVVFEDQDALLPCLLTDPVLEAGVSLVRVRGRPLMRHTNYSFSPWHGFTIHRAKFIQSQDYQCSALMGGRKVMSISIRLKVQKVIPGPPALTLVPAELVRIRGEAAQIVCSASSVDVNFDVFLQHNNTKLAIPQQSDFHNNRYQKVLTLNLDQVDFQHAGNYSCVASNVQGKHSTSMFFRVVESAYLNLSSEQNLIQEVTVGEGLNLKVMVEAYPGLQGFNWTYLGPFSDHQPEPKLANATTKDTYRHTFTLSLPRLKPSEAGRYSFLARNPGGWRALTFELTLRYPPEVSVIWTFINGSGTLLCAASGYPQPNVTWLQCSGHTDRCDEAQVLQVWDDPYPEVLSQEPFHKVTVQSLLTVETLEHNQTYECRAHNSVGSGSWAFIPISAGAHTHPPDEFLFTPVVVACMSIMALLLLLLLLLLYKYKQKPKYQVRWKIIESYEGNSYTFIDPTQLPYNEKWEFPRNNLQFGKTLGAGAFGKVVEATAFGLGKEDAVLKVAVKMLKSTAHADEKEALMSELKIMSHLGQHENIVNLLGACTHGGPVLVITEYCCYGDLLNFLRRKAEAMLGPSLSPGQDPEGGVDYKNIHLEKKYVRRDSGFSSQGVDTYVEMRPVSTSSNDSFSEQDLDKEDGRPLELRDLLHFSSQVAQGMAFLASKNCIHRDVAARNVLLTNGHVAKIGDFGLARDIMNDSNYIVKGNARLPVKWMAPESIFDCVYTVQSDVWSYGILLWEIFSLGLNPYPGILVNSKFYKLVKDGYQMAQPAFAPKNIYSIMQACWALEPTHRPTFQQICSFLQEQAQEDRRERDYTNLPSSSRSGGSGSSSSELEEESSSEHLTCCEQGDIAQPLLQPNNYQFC

FRK = target: T6, FRK (Homo sapiens, UniProt P42685); details: at 10 nM; recombinant FRK
T6 construct: purchased Carna Biosciences, Inc
T6 sequence (P42685 whole entry): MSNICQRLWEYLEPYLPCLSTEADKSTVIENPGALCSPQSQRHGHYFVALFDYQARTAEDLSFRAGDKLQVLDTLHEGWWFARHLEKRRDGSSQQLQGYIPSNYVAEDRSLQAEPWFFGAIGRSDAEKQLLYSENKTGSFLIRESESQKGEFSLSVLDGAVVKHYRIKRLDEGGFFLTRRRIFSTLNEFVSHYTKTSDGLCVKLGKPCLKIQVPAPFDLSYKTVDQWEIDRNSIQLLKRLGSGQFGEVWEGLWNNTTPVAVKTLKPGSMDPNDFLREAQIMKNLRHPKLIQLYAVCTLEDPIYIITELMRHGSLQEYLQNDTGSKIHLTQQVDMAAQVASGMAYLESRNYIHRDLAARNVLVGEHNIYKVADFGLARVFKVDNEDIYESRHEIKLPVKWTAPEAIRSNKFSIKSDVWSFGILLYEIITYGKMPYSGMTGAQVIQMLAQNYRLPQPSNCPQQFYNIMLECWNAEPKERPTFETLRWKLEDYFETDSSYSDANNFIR

LYNa = target: T7, LYNa (Homo sapiens, UniProt P07948); details: recombinant LYNa; for inhibition at 0.001 µM: at 1 nM; for inhibition at 0.01 µM: at 10 nM, read-out: inhibition
T7 construct: purchased Carna Biosciences, Inc
T7 sequence (P07948 whole entry): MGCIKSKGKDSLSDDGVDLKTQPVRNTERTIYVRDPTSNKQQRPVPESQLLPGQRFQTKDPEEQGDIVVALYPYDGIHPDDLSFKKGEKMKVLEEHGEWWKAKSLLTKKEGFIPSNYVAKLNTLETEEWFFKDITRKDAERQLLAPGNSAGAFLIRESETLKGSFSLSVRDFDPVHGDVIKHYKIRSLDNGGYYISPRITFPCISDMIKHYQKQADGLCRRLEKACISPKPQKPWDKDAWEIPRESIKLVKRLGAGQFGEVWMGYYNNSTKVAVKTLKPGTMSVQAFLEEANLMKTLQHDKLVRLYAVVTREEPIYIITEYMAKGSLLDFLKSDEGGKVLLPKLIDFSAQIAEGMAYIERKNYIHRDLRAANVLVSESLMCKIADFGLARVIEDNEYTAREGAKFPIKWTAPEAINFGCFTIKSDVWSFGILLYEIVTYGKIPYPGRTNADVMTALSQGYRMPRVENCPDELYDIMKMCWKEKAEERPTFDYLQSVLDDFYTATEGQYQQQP

PDGFRβ = target: T8, PDGFRβ (Homo sapiens, UniProt P09619); details: at 10 nM; recombinant PDGFRβ; read-out: inhibition
T8 construct: purchased Carna Biosciences, Inc
T8 sequence (P09619 33-1106): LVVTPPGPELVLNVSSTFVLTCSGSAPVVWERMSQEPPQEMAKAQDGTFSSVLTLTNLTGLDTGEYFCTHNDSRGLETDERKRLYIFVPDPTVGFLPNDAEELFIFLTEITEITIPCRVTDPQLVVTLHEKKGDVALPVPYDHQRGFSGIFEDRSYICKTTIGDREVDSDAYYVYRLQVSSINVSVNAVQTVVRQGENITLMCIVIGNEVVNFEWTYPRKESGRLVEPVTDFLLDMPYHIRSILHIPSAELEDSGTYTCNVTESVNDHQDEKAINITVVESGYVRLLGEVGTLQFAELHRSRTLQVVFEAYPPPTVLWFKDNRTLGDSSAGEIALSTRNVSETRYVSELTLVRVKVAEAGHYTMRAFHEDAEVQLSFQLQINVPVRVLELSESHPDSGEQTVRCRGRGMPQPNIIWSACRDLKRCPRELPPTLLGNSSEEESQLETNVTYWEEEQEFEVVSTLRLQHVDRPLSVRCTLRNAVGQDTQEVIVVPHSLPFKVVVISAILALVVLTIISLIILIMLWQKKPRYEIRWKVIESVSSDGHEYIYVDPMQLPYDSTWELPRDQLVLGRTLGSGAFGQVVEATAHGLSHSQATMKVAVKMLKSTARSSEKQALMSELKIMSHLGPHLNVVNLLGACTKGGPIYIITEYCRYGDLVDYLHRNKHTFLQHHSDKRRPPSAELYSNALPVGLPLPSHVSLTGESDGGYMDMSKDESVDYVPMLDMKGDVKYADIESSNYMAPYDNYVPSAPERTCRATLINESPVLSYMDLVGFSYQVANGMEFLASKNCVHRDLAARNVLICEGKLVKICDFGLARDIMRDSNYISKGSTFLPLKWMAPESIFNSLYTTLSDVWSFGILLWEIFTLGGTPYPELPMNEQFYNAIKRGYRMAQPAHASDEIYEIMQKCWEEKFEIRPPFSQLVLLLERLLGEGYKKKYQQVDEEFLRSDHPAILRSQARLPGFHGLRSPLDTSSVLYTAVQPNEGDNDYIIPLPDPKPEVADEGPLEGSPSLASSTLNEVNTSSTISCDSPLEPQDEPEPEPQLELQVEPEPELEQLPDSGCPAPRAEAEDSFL

PIK3CA/PIK3R1 = target: T9, PIK3CA/PIK3R1 (Homo sapiens, UniProt P42336); details: at 10 nM; recombinant PIK3CA/PIK3R1
T9 construct: purchased Carna Biosciences, Inc

T1 sequence (P00519 whole entry): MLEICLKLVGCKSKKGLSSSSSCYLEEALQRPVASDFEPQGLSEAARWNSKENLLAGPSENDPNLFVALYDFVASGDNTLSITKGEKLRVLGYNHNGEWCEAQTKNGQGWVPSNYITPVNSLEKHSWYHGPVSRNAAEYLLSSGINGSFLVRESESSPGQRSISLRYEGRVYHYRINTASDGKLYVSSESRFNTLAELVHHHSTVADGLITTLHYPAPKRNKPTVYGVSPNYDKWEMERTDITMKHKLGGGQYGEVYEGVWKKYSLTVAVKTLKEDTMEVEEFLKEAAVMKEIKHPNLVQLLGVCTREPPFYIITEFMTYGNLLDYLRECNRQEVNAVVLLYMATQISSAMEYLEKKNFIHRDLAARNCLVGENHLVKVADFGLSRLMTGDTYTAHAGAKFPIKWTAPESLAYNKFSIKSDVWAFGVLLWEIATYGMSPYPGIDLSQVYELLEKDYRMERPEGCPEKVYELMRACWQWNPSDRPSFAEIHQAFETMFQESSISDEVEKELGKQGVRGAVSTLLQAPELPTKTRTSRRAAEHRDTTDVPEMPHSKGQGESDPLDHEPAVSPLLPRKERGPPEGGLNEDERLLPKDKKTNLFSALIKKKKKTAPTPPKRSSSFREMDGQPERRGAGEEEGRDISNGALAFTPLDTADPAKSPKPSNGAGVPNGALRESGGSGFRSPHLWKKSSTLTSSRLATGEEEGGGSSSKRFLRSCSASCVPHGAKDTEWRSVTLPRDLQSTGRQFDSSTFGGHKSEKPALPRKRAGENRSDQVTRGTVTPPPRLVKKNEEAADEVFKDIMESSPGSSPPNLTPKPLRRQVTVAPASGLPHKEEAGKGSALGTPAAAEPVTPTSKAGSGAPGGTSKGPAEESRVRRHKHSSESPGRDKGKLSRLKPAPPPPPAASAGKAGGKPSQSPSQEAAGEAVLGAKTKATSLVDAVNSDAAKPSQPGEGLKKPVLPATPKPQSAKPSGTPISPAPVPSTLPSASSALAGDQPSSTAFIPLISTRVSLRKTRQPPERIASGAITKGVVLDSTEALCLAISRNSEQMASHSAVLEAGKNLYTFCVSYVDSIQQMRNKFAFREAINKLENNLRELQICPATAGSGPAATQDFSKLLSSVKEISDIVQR

[2H]c1cc(C)c(NC(=O)c2cnc(Nc3cc(N4CC[C@@H](N)C4)nc(C)n3)s2)c(Cl)c1 [Compound VII, N-(2-chloro-4-deutero-6-methylphenyl)-2-[[2-methyl-6-((R)-3-aminopyrrolidin-1-yl)pyrimidin-4-yl]amino]thiazole-5-carboxamide]
> 50%: inhibition at 0.001 µM (ABL) | inhibition at 0.01 µM (ABL) | inhibition at 0.001 µM (BMX) | inhibition at 0.01 µM (BMX) | inhibition at 0.01 µM (DDR2) | inhibition at 0.01 µM (EPHA1) | inhibition at 0.01 µM (FMS) | inhibition at 0.01 µM (FRK) | inhibition at 0.001 µM (LYNa) | inhibition at 0.01 µM (LYNa) | inhibition at 0.01 µM (PDGFRβ) | inhibition at 0.01 µM (PIK3CA/PIK3R1)

[2H]c1cc(C)c(NC(=O)c2cnc(Nc3cc(N4CC[C@H](N)C4)nc(C)n3)s2)c(Cl)c1 [Compound VI, N-(2-chloro-4-dutero-6-methylphenyl)-2-[[2-methyl-6-((S)-3-aminopyrrolidin-1-yl)pyrimidin-4-yl]amino]thiazole-5-carboxamide]
> 50%: inhibition at 0.001 µM (ABL) | inhibition at 0.01 µM (ABL) | inhibition at 0.001 µM (BMX) | inhibition at 0.01 µM (BMX) | inhibition at 0.01 µM (DDR2) | inhibition at 0.01 µM (EPHA1) | inhibition at 0.01 µM (FMS) | inhibition at 0.01 µM (FRK) | inhibition at 0.001 µM (LYNa) | inhibition at 0.01 µM (LYNa) | inhibition at 0.01 µM (PDGFRβ) | inhibition at 0.01 µM (PIK3CA/PIK3R1)

[2H]c1cc(C)c(NC(=O)c2cnc(Nc3cc(N4CC[C@H](O)C4)nc(C)n3)s2)c(Cl)c1 [Compound IV, N-(2-chloro-4-deutero-6-methylphenyl)-2-[[2-methyl-6-((S)-3-hydroxypyrrolidin-1-yl)pyrimidin-4-yl]amino]thiazole-5-carboxamide]
> 50%: inhibition at 0.001 µM (ABL) | inhibition at 0.01 µM (ABL) | inhibition at 0.001 µM (BMX) | inhibition at 0.01 µM (BMX) | inhibition at 0.01 µM (DDR2) | inhibition at 0.01 µM (EPHA1) | inhibition at 0.01 µM (FMS) | inhibition at 0.01 µM (FRK) | inhibition at 0.001 µM (LYNa) | inhibition at 0.01 µM (LYNa) | inhibition at 0.01 µM (PDGFRβ) | inhibition at 0.01 µM (PIK3CA/PIK3R1)

Cc1nc(Nc2ncc(C(=O)Nc3c(C)cccc3Cl)s2)cc(N2CCCCC2)n1 [Compound VIII, N-(2-chloro-6-methylphenyl)-2-[[2-methyl-6-(piperidin-1-yl)pyrimidin-4-yl]amino]thiazole-5-carboxamide]
> 50%: inhibition at 0.001 µM (ABL) | inhibition at 0.01 µM (ABL) | inhibition at 0.001 µM (BMX) | inhibition at 0.01 µM (BMX) | inhibition at 0.01 µM (DDR2) | inhibition at 0.01 µM (EPHA1) | inhibition at 0.01 µM (FMS) | inhibition at 0.01 µM (FRK) | inhibition at 0.001 µM (LYNa) | inhibition at 0.01 µM (LYNa) | inhibition at 0.01 µM (PDGFRβ) | inhibition at 0.01 µM (PIK3CA/PIK3R1)

Cc1nc(Nc2ncc(C(=O)Nc3c(C)cccc3Cl)s2)cc(N2CC[C@H](O)C2)n1 [Compound X, N-(2-chloro-6-methylphenyl)-2-[[2-methyl-6-((S)-3-hydroxypyrrolidin-1-yl)pyrimidin-4-yl]amino]thiazole-5-carboxamide]
> 50%: inhibition at 0.001 µM (ABL) | inhibition at 0.01 µM (ABL) | inhibition at 0.001 µM (BMX) | inhibition at 0.01 µM (BMX) | inhibition at 0.01 µM (DDR2) | inhibition at 0.01 µM (EPHA1) | inhibition at 0.01 µM (FMS) | inhibition at 0.01 µM (FRK) | inhibition at 0.001 µM (LYNa) | inhibition at 0.01 µM (LYNa) | inhibition at 0.01 µM (PDGFRβ) | inhibition at 0.01 µM (PIK3CA/PIK3R1)

Cc1nc(Nc2ncc(C(=O)Nc3c(C)cccc3Cl)s2)cc(N2CC[C@H](N)C2)n1 [Compound XII, N-(2-chloro-6-methylphenyl)-2-[[2-methyl-6-((S)-3-aminopyrrolidin-1-yl)pyrimidin-4-yl]amino]thiazole-5-carboxamide]
> 50%: inhibition at 0.001 µM (ABL) | inhibition at 0.01 µM (ABL) | inhibition at 0.001 µM (BMX) | inhibition at 0.01 µM (BMX) | inhibition at 0.01 µM (DDR2) | inhibition at 0.01 µM (EPHA1) | inhibition at 0.01 µM (FMS) | inhibition at 0.01 µM (FRK) | inhibition at 0.001 µM (LYNa) | inhibition at 0.01 µM (LYNa) | inhibition at 0.01 µM (PDGFRβ) | inhibition at 0.01 µM (PIK3CA/PIK3R1)
